In ChEMBL document CHEMBL1126757, “Benzoquinazoline inhibitors of thymidylate synthase: enzyme inhibitory activity and cytotoxicity of some 3-amino- and 3-methylbenzo[f]quinazolin-1(2H)-ones” (J Med Chem, 1993):

Columns and labels:
Thymidylate synthase [1] = target: T1, Thymidylate synthase (Escherichia coli, UniProt C3SWJ7); assay: Inhibition against thymidylate synthase (TS) in Escherichia coli; conditions: read-out: I50
Thymidylate synthase [2] = target: T2, Thymidylate synthase (Homo sapiens, UniProt P04818)
Target sequence in this assay (P04818 whole entry): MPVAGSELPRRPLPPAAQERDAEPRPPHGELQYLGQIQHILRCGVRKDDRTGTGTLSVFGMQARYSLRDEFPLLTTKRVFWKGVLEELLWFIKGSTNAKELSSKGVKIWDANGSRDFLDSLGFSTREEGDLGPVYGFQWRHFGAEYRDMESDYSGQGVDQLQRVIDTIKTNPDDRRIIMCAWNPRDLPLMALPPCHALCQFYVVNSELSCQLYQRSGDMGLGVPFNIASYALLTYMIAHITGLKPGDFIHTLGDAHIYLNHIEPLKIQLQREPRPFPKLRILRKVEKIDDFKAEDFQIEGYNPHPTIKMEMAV

SW480 = assay: cells; conditions: Homo sapiens
Thymidylate synthase [3] = target: T1, Thymidylate synthase; assay: Tested against thymidylate synthase (TS) in E. coli; conditions: read-out: I50
[4] = tested on: Thymidylate synthase (Bos taurus); assay: Tested against thymidylate synthase (TS) in calf thymus at 765 uM
[5] = target: Thymidylate synthase (Escherichia coli) (UniProt C3SWJ7); assay: Tested for percent inhibition against thymidylate synthase (TS) in Escherichia coli at 764.0 uM
Chain of Thymidylate synthase (Escherichia coli) (C3SWJ7 1-264): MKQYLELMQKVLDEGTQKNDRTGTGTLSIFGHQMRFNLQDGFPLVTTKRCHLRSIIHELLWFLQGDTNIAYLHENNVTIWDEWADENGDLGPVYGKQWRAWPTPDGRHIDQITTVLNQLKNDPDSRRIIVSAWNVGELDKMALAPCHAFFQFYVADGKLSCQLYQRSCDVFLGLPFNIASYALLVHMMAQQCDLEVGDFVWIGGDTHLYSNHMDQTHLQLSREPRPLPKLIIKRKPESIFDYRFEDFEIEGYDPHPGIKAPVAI

Thymidylate synthase [6] = target: T1, Thymidylate synthase; assay: Tested for inhibition against thymidylate synthase (TS) in Escherichia coli
Thymidylate synthase [7] = target: T2, Thymidylate synthase; assay: Tested for inhibition against thymidylate synthase (TS) in human
Target sequence in this assay (P04818 whole entry): as the sequence (P04818 whole entry) above

Thymidylate synthase [8] = target: T2, Thymidylate synthase; assay: Tested for percent inhibition against thymidylate synthase (TS) in human at 63 uM
Target sequence in this assay (P04818 2-313 limits assumed): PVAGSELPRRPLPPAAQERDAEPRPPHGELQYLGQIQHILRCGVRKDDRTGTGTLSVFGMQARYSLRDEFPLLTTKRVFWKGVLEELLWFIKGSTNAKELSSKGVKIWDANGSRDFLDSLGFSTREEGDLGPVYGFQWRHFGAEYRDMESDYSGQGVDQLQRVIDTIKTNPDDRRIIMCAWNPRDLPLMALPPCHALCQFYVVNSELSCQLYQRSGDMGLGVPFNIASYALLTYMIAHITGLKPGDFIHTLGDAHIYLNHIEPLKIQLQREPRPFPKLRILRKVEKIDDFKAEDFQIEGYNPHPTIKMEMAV

[9] = target: Thymidylate synthase (Escherichia coli) (UniProt C3SWJ7); assay: Tested for percent inhibition against thymidylate synthase (TS) in Escherichia coli at 63.2 uM
[10] = tested on: Thymidylate synthase (Candida albicans); assay: Tested for percent inhibition against thymidylate synthase (TS) in Candida albicans at 63.2 uM

T1 sequence (C3SWJ7 whole entry): as the sequence (C3SWJ7 1-264) above

Compound	IC50 (Thymidylate synthase [1])	IC50 (Thymidylate synthase [2])	IC50 (SW480)	further results
Nc1nc2ccc3cc([N+](=O)[O-])cc([N+](=O)[O-])c3c2c(=O)[nH]1	104 µM	145 µM		
Cc1nc(O)c2c(n1)CCc1ccc(I)cc1-2				IC50 (Thymidylate synthase [3]): 19.8 µM
Nc1nc2ccc3cc(Cl)ccc3c2c(=O)[nH]1		45.4 µM		
Nc1nc2c(c(=O)[nH]1)-c1cccc(F)c1CC2	99 µM	83.6 µM	> 100 µM	
Cc1nc(O)c2c(ccc3ccccc32)n1			> 100 µM	IC50 (Thymidylate synthase [3]): 30.1 µM
Cc1nc(O)c2c(ccc3ccc(F)cc32)n1			100 µM	IC50 (Thymidylate synthase [3]): 29.6 µM
Nc1nc(O)c2c(ccc3ccc(Br)c([N+](=O)[O-])c32)n1		0.23 µM	20 µM	
COc1cc2c(cc1OC)-c1c(O)nc(N)nc1CC2	762 µM			inhibition [4]: 25%
Nc1ccc2c(c1)-c1c(nc(N)[nH]c1=O)CC2	16.9 µM	13.5 µM	> 100 µM	
Oc1nc(NCc2ccccc2)nc2ccc3ccc(Cl)cc3c12			12 µM	
Cc1nc(O)c2c(ccc3c(I)cccc32)n1			50 µM	
Nc1nc2ccc3c([N+](=O)[O-])c(Br)ccc3c2c(=O)[nH]1	104 µM			
Cc1cc2nc(N)[nH]c(=O)c2c2ccc(Cl)cc12		6.9 µM		
Nc1nc(O)c2c(ccc3cc(F)cc([N+](=O)[O-])c32)n1			50 µM	inhibition [5]: 41%
Nc1nc2c(c(=O)[nH]1)-c1ccc3ccccc3c1CC2			30 µM	IC50 (Thymidylate synthase [6]): 36 µM
Nc1nc2ccc3cc([N+](=O)[O-])c(Br)cc3c2c(=O)[nH]1	31 µM	3.12 µM	2.5 µM	
Cc1nc(O)c2c(ccc3ccc(Cl)cc32)n1			10 µM	
Nc1ccc2c(ccc3nc(N)nc(O)c32)c1		7.5 µM	100 µM	
O=CNc1nc(O)c2c(ccc3ccc(Br)cc32)n1		0.54 µM	7 µM	
Cc1nc(O)c2c(ccc3c(Cl)cccc32)n1			50 µM	
CC1Cc2nc(N)nc(O)c2-c2ccccc21 (stereo unspecified)	23 µM			
C#Cc1ccc2c(c1)-c1c(nc(N)[nH]c1=O)CC2	26.3 µM		35 µM	
Nc1nc(O)c2c(ccc3c(N)cccc32)n1	39 µM	15.2 µM	> 100 µM	
Cc1nc2c(c(=O)[nH]1)-c1cccc(Cl)c1CC2		193 µM	> 100 µM	
CC1(C)Cc2nc(N)nc(O)c2-c2ccccc21	49.6 µM	43.9 µM		
Cc1cccc2c1ccc1nc(N)nc(O)c12	18.1 µM	7.5 µM	35 µM	
Nc1nc2ccc3c(Br)cccc3c2c(=O)[nH]1		8.9 µM		
Nc1nc2c(c(=O)[nH]1)-c1ccc(F)cc1CC2	750 µM		80 µM	

Compound	IC50 (Thymidylate synthase [1])	IC50 (Thymidylate synthase [2])	IC50 (SW480)	further results
CCSc1ccc2c(c1)-c1c(nc(N)[nH]c1=O)CC2	31.7 µM		40 µM	
Nc1nc2ccc3c(Cl)cccc3c2c(=O)[nH]1		26 µM		
Cc1cccc2c1CCc1nc(N)[nH]c(=O)c1-2	59 µM			
Nc1nc(O)c2c(ccc3cc(F)cc(N)c32)n1	47.1 µM	73.8 µM	70 µM	
Nc1nc(O)c2c(n1)CCc1cc([N+](=O)[O-])ccc1-2	43 µM			
Cc1nc(O)c2c(n1)CCc1ccc(F)cc1-2	32.8 µM		> 100 µM	
Nc1ccc2c(c1)CCc1nc(N)[nH]c(=O)c1-2	89 µM			
COCc1cc2nc(N)nc(O)c2c2ccccc12		15 µM	60 µM	
Nc1nc2ccc3cc(F)cc([N+](=O)[O-])c3c2c(=O)[nH]1		34.5 µM		
CCOc1ccc2ccc3nc(N)nc(O)c3c2c1		4.2 µM	20 µM	
Nc1nc2ccc3cc(F)ccc3c2c(=O)[nH]1	231 µM	44 µM	50 µM	
Nc1nc(O)c2c(ccc3c([N+](=O)[O-])c(F)ccc32)n1	403 µM	552 µM	30 µM	
COc1cccc2c1CCc1nc(N)nc(O)c1-2	250 µM			
Nc1nc(O)c2c(ccc3cc(Br)c([N+](=O)[O-])cc32)n1	28 µM			
Nc1nc2c(c(=O)[nH]1)-c1cc(Br)c([N+](=O)[O-])cc1CC2	97.5 µM		12 µM	
Cc1nc2c(c(=O)[nH]1)-c1cc(Cl)ccc1CC2			> 100 µM	IC50 (Thymidylate synthase [3]): 18.8 µM
Cc1nc2c(c(=O)[nH]1)-c1ccccc1CC2	119 µM		> 100 µM	
Cc1cc(C)c2c(c1)-c1c(nc(N)[nH]c1=O)CC2			> 100 µM	IC50 (Thymidylate synthase [6]): 13 µM
Nc1nc(O)c2c(ccc3c([N+](=O)[O-])cccc32)n1				inhibition (Thymidylate synthase [8]): 23%; inhibition [9]: 29%; inhibition [10]: 0%
COc1ccc2c(c1)CCc1nc(N)nc(O)c1-2	240 µM			
Nc1nc2ccc3c(N)c(Br)ccc3c2c(=O)[nH]1		16.8 µM	20 µM	
Nc1nc(O)c2c(cc(CO)c3ccccc32)n1	102 µM	8.6 µM	> 100 µM	
Nc1nc2ccc3c(Br)c(N)c(Br)cc3c2c(=O)[nH]1	25 µM			
Cc1nc(O)c2c(ccc3c(Br)cccc32)n1			50 µM	
Nc1nc2ccc3c(F)cccc3c2c(=O)[nH]1	208 µM	25 µM	30 µM	
Nc1nc2c(c(=O)[nH]1)-c1ccc(Cl)cc1CC2	334 µM			
Nc1nc2c(c(=O)[nH]1)-c1cccc(Br)c1CC2	109 µM			

Further molecules by falling IC50 (Thymidylate synthase [1]), results first:

IC50 (Thymidylate synthase [1])	IC50 (Thymidylate synthase [2])	IC50 (SW480)	Compound	further results
14 µM	0.6 µM	20 µM	C#Cc1ccc2ccc3nc(N)nc(O)c3c2c1	
12 µM	8.4 µM	> 100 µM	Nc1nc2c(c(=O)[nH]1)-c1cc(O)ccc1CC2	
9.8 µM	2.31 µM	> 100 µM	Nc1nc2ccc3cccc([N+](=O)[O-])c3c2c(=O)[nH]1	
8.69 µM		65 µM	Cc1nc2c(c(=O)[nH]1)-c1cc(Br)ccc1CC2	
7.7 µM	0.49 µM	20 µM	CCc1ccc2ccc3nc(N)nc(O)c3c2c1	
7 µM	1.08 µM	52 µM	Nc1nc2ccc3ccccc3c2c(=O)[nH]1	
7 µM		> 100 µM	Nc1nc(O)c2c(n1)CCc1ccccc1-2	
6.9 µM		6 µM	Cc1nc(O)c2c(ccc3ccc(Br)cc32)n1	
6.7 µM			Nc1nc2c(c(=O)[nH]1)-c1cc(Cl)c(Cl)cc1CC2	IC50 (Thymidylate synthase [7]): 2.96 µM
6.3 µM	1.31 µM	10 µM	Nc1nc2ccc3c(I)cccc3c2c(=O)[nH]1	
6 µM	3.6 µM	25 µM	COc1ccc2c(c1)-c1c(O)nc(N)nc1CC2	
5.8 µM	0.72 µM	> 100 µM	Cc1ccc2c(c1)-c1c(O)nc(N)nc1CC2	
5.4 µM	0.71 µM	20 µM	Nc1nc2ccc3cc(Cl)c(Cl)cc3c2c(=O)[nH]1	
5.12 µM	7.8 µM	> 100 µM	Nc1cc(N)c2c(ccc3nc(N)nc(O)c32)c1	
5 µM		15 µM	Nc1nc(O)c2c(n1)CCc1ccc(I)cc1-2	
5 µM		20 µM	COc1ccc2ccc3nc(N)nc(O)c3c2c1	IC50 (Thymidylate synthase [7]; read-out: I50): 1.6 µM
5 µM			Cc1cc(C)c2ccc3nc(N)[nH]c(=O)c3c2c1	
4.3 µM	3.28 µM		CCSc1ccc2ccc3nc(N)nc(O)c3c2c1	
4 µM		80 µM	Nc1nc(O)c2c(n1)CCc1ccc(F)cc1-2	

IC50 (Thymidylate synthase [1])	IC50 (Thymidylate synthase [2])	IC50 (SW480)	Compound	further results
3.6 µM	0.37 µM		CC1Cc2nc(N)nc(O)c2-c2cc(Cl)ccc21 (stereo unspecified)	
2.9 µM		15 µM	Nc1nc2c(c(=O)[nH]1)-c1cc(Br)c(N)cc1CC2	
2.8 µM	0.34 µM	15 µM	Nc1nc(O)c2c(ccc3cc(N)c(Br)cc32)n1	
2.4 µM	0.5 µM	10 µM	Nc1nc(O)c2c(ccc3ccc(F)cc32)n1	
2 µM		25 µM	Nc1nc(O)c2c(n1)CCc1ccc(Br)cc1-2	
1.84 µM	0.48 µM	40 µM	Nc1nc2ccc3ccc(O)cc3c2c(=O)[nH]1	
1.6 µM		25 µM	Nc1nc2c(c(=O)[nH]1)-c1cc(Cl)ccc1CC2	
1.6 µM	0.46 µM		CSc1ccc2ccc3nc(N)nc(O)c3c2c1	
1.47 µM	0.178 µM	30 µM	Cc1ccc2ccc3nc(N)nc(O)c3c2c1	
1.2 µM		60 µM	CSc1ccc2c(c1)-c1c(nc(N)[nH]c1=O)CC2	
1.1 µM	0.12 µM	6 µM	C=Cc1ccc2ccc3nc(N)nc(O)c3c2c1	
1 µM			Cc1cc2nc(N)[nH]c(=O)c2c2ccccc12	
0.64 µM	0.36 µM	30 µM	Nc1nc(O)c2c(ccc3ccc(Br)c(N)c32)n1	
0.63 µM	0.52 µM	60 µM	Oc1nc(NCc2ccccc2)nc2ccc3c(Br)cccc3c12	
0.6 µM	0.63 µM	80 µM	Nc1ccc2ccc3nc(N)nc(O)c3c2c1	
0.52 µM	0.025 µM	3 µM	Nc1nc2ccc3ccc(Cl)cc3c2c(=O)[nH]1	
0.323 µM	0.022 µM	5 µM	Nc1nc(O)c2c(ccc3ccc(I)cc32)n1	
0.267 µM	0.022 µM	10 µM	Nc1nc(O)c2c(ccc3ccc(Br)cc32)n1	
0.17 µM	0.02 µM	2 µM	Cc1cc2nc(N)nc(O)c2c2cc(Cl)ccc12	
